Test results published in patent US20210386733A1, “LYSINE-SPECIFIC HISTONE DEMETHYLASE INHIBITORS FOR THE TREATMENT OF MYELOPROLIFERATIVE NEOPLASMS” (Imago Biosciences, Inc., priority 2019, published 2021).
Where a name gives a salt, the structure may show the parent alone.

Test system: patients with high-risk MF
Test: Phase 1/2A clinical trial of Compound 1 in myelofibrosis (Example 1)
Format: in vivo, human
Description: A multi-center, open-label study evaluating the safety, tolerability, steady-state pharmacokinetics and pharmacodynamics of Compound 1 administered orally once daily in patients with high-risk MF, including primary myelofibrosis (PMF), post-polycythemia vera myelofibrosis (PPV-MF), and post-essential thrombocythemia myelofibrosis (PET-MF) (collectively referred to as ‘MF’) was initiated as a Phase 1/2A study, and was expanded to a Phase 2b study.
The Phase 1/2A portion of the study assessed: the safety of the original starting dose, 0.25 mg/kg/d; an 85-day duration of treatment with a subsequent washout period of up to 28 days; and, pharmacokinetic and drug concentration measurements. […] With transition to a Phase 2b study, changes supported by the earlier pharmacokinetic and pharmacodynamic studies and safety assessments were implemented, including: an increased starting dose of 0.5 mg/kg/d with larger titration increments; a 168-day (24 week) duration of treatment, with continuous dosing via removal of the washout period; elimination of PK and drug concentration sampling; and, a reduced visit schedule.
This study was conducted at multiple sites. Up to 50 patients, eighteen years of age or older, with high-risk myelofibrosis were treated. The primary objectives included safety and tolerability, pharmacokinetics (PK; Phase 1/2A only) and spleen volume reduction (SVR). […] Key inclusion criteria included: high- or intermediate-2 risk myelofibrosis; per the Investigator's judgment have failed (refractory or resistant to, inadequately controlled by or intolerant of), or are not a candidate for, available approved therapy including ruxolitinib; platelet count≥100K/μL; and, circulating blasts ≤10%.
In the Phase 1/2a portion of the study, patients started at the presumed sub-therapeutic dose of 0.25 mg/kg/d. Dose-adjustments were made weekly (the lifespan of a human platelet) with dose-titration, either upward or downward, contingent on platelet values at the time of evaluation. Upward titrations were made in increments of 0.125 or 0.0625 mg/kg/d as shown below. Downward titrations were made in decrements of 50% of the current dose. […] The titration target platelet count expected to be associated with most efficacious therapeutic effect was ≥50,000 to <100,000/μL (50-100×10^9/L). The Phase 1/2a titration and re-challenge rules based on weekly evaluation of platelet counts are noted below in Table 1.
All but one patient had received one or more prior treatments including ruxolitinib. 48% had PMF, 33% PET-MF, 19% PPV-MF. The median patient age was 65 years (48-89) with 58% males. 48% were classified as high risk (IPSS), the remainder, intermediate risk-2. […] A substantial fraction of the patients had ≥3 mutations. Patients were treated daily for 12 weeks, in accordance with above starting dose and titration rules, followed by a washout period of up to 28 days. Starting platelet counts ranged from about 141 to about 1309 k/μL. Bone marrow biopsies and imaging studies of the abdomen were conducted prior to treatment and during the washout period after 12 weeks of dosing. Grading of myelofibrosis was performed centrally using the 2016 revised World Health Organization classification of myeloid neoplasia (Arber et al., 2016); image reading was also performed centrally. The Myeloproliferative Neoplasm Symptom Assessment Form (MPN-SAF) was self-administered at Baseline and weekly from Day 0 through the End of Study (EoS) Visit. Total symptom scores were derived from this tool. Patients for whom clinical benefit was demonstrable could resume treatment for additional 12-week cycles.

[1] = 13 patients with biopsies, Day 0 to Day 84 or EoT
[2] = of the 3 with Hb>10 g/dL at day 0, day 84
[3] = of the 6 transfusion-independent patients with Hb<10 g/dL
[4] = of the 9 transfusion-dependent patients, day 84

## CN1CCN(C(=O)[C@H](CCCN[C@@H]2C[C@H]2c2ccc(F)cc2)NC(=O)c2ccc(-n3ccnn3)cc2)CC1 [Compound 1, N-[(2S)-5-{[(1R, 2S)-2-(4-fluorophenyl)cyclopropyl]amino}-1-(4-methylpiperazin-1-yl)-1-oxopentan-2-yl]-4-(1H-1,2,3-triazol-1-yl)benzamide, bis-tosylate salt]
[1]
  patients whose bone marrow fibrosis progressed by 1 Grade: 23%
  patients with a stable bone marrow fibrosis score: 62%
  patients with bone marrow fibrosis improvement of ≥1 grade: 15%
At the doses used in this study
  28 days expressed in half-lives of the drug: > 10 half-lives
Day 0 to day 84, BAT as in PERSIST-2 trial, FIG. 3
  spleen volume response (SVR) and total symptom score (TSS) compared with Best Available Treatment (BAT): outperformed the BAT
Evaluable patients N=14, preliminary analysis
  effect on myelofibrosis symptoms: profound effect
Excluding highest and lowest doses
  range of total daily dose needed to achieve a platelet count in the target range: 53 to 90 mg
Excluding highest and lowest doses (4 mg and 100 mg), target 50,000-75,000 platelets per microliter, S.D. 13.8
  mean total daily dose needed to achieve a platelet count in the target range: 78.3 mg
First sixteen patients, assuming an average weight of 75 kg
  mean therapeutic dose per body weight: 0.85 mg/kg/day
Heterogeneous population of MF patients with limited therapeutic options
  overall efficacy on spleen volumes and symptom scores: effective in reducing spleen volumes and substantially improving symptom scores in a majority of patients
human, in vivo
  improvements in symptom scores: generally dose-dependent and rapid
In the course of treatment
  levels of CCL3, IL-6, IL-10, IL-33, IL-28A, IFNβ, IFNα, IFNγ: not elevated in any patient
[2]
  patients with improved Hb (increase of Hb>1 g/dL): 1 patients
  patients with worsened Hb (decrease of Hb>1 g/dL): 2 patients
[3]
  patients who remained stable (Hb): 3 patients
  patients who worsened (became transfusion dependent or Hb drop by >1 g/dL): 2 patients
  patients with improved Hb: 1 patients
Of the 9 transfusion-dependent patients (Hb<10 g/dL), day 84
  patients who became transfusion-independent and had improved Hb of >1 g/dL: 1 patients
[4]
  patients who maintained stable transfusion frequency: 8 patients
  patients with increased transfusion frequency: one
On treatment
  lymphocytes counts: unchanged
  monocyte counts: generally modestly elevated
  peripheral granulocyte counts: lower
  platelet counts: reduced platelet counts in all patients
re-analysis of first sixteen patients
  mean dose needed to achieve and safely maintain the target platelet count (therapeutic dose): 63.8 mg/day
Reversibility of the anti-thrombopoietic effect
  platelet counts after cessation of treatment: rebounded robustly
Six patients, FIG. 10
  percent of F-cells (fetal hemoglobin containing erythrocytes): reduced the percent of F-cells
Week 12
  patients with reduction in symptom score (MPN-10): 79%
  patients with reduction in symptom score by ≥50%: 21%
Week 12, FIG. 4
  inflammatory cytokine S100A9: generally decreased
Week 12, FIG. 5
  inflammatory cytokine RANTES: generally decreased
Week 12, FIG. 6
  inflammatory cytokine IL-8: generally decreased
Week 12, FIG. 7
  circulating growth factor VEGF: generally decreased
Week 12, FIG. 8
  circulating growth factor PDGF-BB: generally decreased
Week 12, evaluable N=14
  patients with a decrease in spleen volume: 50%
Week 24
  patients with a decrease in spleen volume: 75%
  patients with a decrease in spleen volume by 35%: 12.5%
  patients with a decrease in symptom score: 89%
  patients with a decrease in symptom score by ≥50%: 44%
Within 14 days, at the lowest two doses
  patients with improved scores of fatigue: 8 of the first 16 patients
